# Assay results as given in PMC7915588, “Polyphyllin D Shows Anticancer Effect through a Selective Inhibition of Src Homology Region 2-Containing Protein Tyrosine Phosphatase-2 (SHP2)” (Molecules, 2021).
# Experiments:
# Test in all cases: biochemical
# Design in all cases: Fluorogenic phosphatase assay, DiFMUP hydrolysis by recombinant PTPs, initial velocity, Ex/Em 355/460 nm
# Settings in all cases: read-out: Inhibition by 20 µM polyphyllin D (%)
# [1] = target: T1, PTPN2 (TCPTP) (Homo sapiens, UniProt P17706)
# T1 construct: 1-387
# T1 sequence (P17706 1-415): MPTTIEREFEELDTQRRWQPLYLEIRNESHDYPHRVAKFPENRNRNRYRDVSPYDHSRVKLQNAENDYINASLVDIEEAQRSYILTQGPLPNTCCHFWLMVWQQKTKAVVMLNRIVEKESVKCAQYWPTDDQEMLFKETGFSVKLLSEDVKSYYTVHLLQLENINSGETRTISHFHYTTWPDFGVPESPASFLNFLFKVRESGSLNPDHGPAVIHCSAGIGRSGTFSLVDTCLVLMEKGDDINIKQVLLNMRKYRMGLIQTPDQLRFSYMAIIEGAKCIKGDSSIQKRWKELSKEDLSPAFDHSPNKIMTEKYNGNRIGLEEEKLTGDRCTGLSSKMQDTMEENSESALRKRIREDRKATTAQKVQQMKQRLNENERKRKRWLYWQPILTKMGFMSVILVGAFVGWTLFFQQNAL
# [2] = target: T2, PTPN5 (STEP) (Homo sapiens, UniProt P54829)
# T2 construct: 313-565
# T2 sequence (P54829 1-565): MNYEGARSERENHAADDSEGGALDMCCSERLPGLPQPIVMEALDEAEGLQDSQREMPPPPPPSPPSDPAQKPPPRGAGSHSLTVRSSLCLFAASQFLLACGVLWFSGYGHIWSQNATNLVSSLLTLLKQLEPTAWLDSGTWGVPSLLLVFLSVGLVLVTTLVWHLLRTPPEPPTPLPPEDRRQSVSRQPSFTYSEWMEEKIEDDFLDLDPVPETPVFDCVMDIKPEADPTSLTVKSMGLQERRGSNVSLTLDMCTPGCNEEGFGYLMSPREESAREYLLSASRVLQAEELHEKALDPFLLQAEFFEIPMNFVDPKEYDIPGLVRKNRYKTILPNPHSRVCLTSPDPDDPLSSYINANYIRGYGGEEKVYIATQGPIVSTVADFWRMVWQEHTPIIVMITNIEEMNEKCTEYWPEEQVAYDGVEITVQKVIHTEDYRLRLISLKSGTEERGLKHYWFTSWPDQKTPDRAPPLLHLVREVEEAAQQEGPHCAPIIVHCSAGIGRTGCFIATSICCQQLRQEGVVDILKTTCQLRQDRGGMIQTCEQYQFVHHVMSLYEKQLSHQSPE
# [3] = target: T3, PTPN9 (PTP-MEG2) (Homo sapiens, UniProt P43378)
# T3 construct: 277-582
# T3 sequence (P43378 1-593): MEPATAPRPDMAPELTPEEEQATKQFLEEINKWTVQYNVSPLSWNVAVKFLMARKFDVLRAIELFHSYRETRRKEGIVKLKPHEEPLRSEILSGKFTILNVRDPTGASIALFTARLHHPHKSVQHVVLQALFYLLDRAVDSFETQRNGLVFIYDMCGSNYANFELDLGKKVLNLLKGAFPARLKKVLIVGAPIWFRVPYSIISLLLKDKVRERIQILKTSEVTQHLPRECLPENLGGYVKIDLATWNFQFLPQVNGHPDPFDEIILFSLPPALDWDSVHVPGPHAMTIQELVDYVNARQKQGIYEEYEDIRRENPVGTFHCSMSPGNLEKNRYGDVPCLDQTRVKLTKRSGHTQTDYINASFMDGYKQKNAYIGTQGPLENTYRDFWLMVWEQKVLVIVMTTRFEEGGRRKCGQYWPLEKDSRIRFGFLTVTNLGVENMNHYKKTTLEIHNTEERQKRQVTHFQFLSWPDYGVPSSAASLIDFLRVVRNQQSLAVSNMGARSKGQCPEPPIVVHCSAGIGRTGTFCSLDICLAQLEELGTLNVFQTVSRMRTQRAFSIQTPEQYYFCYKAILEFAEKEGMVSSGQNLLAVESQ
structure (smiles),measurement,setting,value
C[C@@H]1CC[C@@]2(OC1)O[C@H]1C[C@H]3[C@@H]4CC=C5C[C@@H](O[C@@H]6O[C@H](CO)[C@@H](O[C@@H]7O[C@@H](CO)[C@H](O)[C@H]7O)[C@H](O)[C@H]6O[C@@H]6O[C@@H](C)[C@H](O)[C@@H](O)[C@H]6O)CC[C@]5(C)[C@H]4CC[C@]3(C)[C@H]1[C@@H]2C [polyphyllin D],inhibition at 20 µM,[1],7.5%
same,inhibition at 20 µM,[2],0%
same,inhibition at 20 µM,[3],0%
